Series [1] is described as follows: Pharmacokinetic parameters in rats after oral administration of the succinate prodrug (Example 7). The class given is in vivo. The settings on record: male, Crl:WI(GLx/BRL/Han)IGS BR (Hanover-Wistar), rat plasma; for Cmax: succinate prodrug given orally (gavage, aqueous suspension); for AUC: succinate prodrug given orally. As to the method: Male Crl:WI(GLx/BRL/Han)IGS BR (Hanover-Wistar) rats weighing 240-260 g were cannulated. Groups of three rats were used for each dose level of an experimental compound. The test substance succinic acid mono-[3-(2-chloro-phenyl)-6-(2,4-difluoro-phenoxy)-4-(2-hydroxy-2-methyl-propylamino)-pyrazolo[3,4-d]pyrimidin-1-ylmethyl]ester was formulated as an aqueous suspension, and a dose of 3 or 10 mg/kg (in 1-[3-(2-Chloro-phenyl)-6-(2,4-difluoro-phenoxy)-1H-pyrazolo[3,4-d]pyrimidin-4-ylamino]-2-methyl-propan-2-ol equivalent) was administered orally through gavage. A blood sample (0.3 mL) was collected from the each treated rat at 0 (predose), 0.083, 0.25, 1, 2, 4, 6, and 8 h after dose via the jugular cannula. At 24 h after dosing, blood was collected from each treated rat via cardiac puncture. Lithium heparin was added to the samples which were stored on ice during sampling procedure. The samples were spun in a refrigerated centrifuge at 4° C. as soon as possible and the plasma samples were stored −20° C. immediately after centrifugation and until analysis. The concentration of test compound was determined by HPLC-MS/MS.

Series [2] in a line: Pharmacokinetic parameters in rats after oral administration of the phosphate prodrug (Example 6). It counts as in vivo. The following applies: for Cmax / AUC: male, Crl:WI(GLx/BRL/Han)IGS BR (Hanover-Wistar), po, rat plasma; for Cmax: phosphate prodrug given orally (gavage, aqueous suspension). The source says: Male Crl:WI(GLx/BRL/Han)IGS BR (Hanover-Wistar) rats weighing 240-260 g were cannulated. Groups of three rats were used for each dose level of an experimental compound. One additional non-cannulated animal was included as vehicle control. Animals were allowed normal access to food and water throughout the experiment. The test substance phosphoric acid mono-{2-[3-(2-chloro-phenyl)-6-(2,4-difluoro-phenoxy)-1H-pyrazolo[3,4-d]pyrimidin-4-ylamino]-1-methyl-ethyl}ester was formulated as an aqueous suspension and a dose of 3 or 30 mg/kg (in 1-[3-(2-chloro-phenyl)-6-(2,4-difluoro-phenoxy)-1H-pyrazolo[3,4-d]pyrimidin-4-ylamino]-propan-2-ol equivalent) was administered orally through gavage. A blood sample (0.3 mL) was collected from the each treated rat at 0 (predose), 0.083, 0.25, 1, 2, 4, 6, and 8 hr after dose via the jugular cannula. At 24 hr after dosing, blood was collected from each treated rat via cardiac puncture. Blood was also collected from the untreated animal at 24 hr via cardiac puncture. Lithium heparin was added to the samples which were stored on ice during sampling procedure. The samples were spun in a refrigerated centrifuge at 4° C. as soon as possible and the plasma samples were stored −20° C. immediately after centrifugation and until analysis. The concentration of test compound was determined by HPLC-MS/MS. […] The prodrug phosphoric acid mono-{2-[3-(2-chloro-phenyl)-6-(2,4-difluoro-phenoxy)-1H-pyrazolo[3,4-d]pyrimidin-4-ylamino]-1-methyl-ethyl}ester was not detected in the rat plasma (at quantification limit of 0.0005 μg/mL) with the 3-mg/kg dose.

The target in a further series is T1, p38 MAP kinase (Homo sapiens, UniProt Q16539).
T1 construct: made in house; host or cells: E. coli (co-expressed with SEK-1 and MEKK)
Kind of series: p38 (MAP) kinase in vitro assay, transfer of γ-33P from ATP to Myelin Basic Protein. The settings on record: phosphorylated recombinant p38 MAP kinase, MBP substrate. It counts as biochemical. The method, then:
The p38 MAP kinase inhibitory activity of compounds of this invention in vitro was determined by measuring the transfer of the γ-phosphate from γ-^33P-ATP by p-38 kinase to Myelin Basic Protein (MBP), using a minor modification of the method described in Ahn, et al., J. Biol. Chem. 266:4220-4227 (1991).
The phosphorylated form of the recombinant p38 MAP kinase was co-expressed with SEK-1 and MEKK in E. Coli (see, Khokhlatchev, et al., J. Biol. Chem. 272:11057-11062 (1997)) and then purified by affinity chromatography using a Nickel column.
The phosphorylated p38 MAP kinase was diluted in kinase buffer (20 mM 3-(N-morpholino)propanesulfonic acid, pH 7.2, 25 mM β-glycerol phosphate, 5 mM ethylene glycol-bis(beta-aminoethyl ether)-N,N,N′,N′-tetraacetic acid, 1 mM sodium ortho-vanadate, 1 mM dithiothreitol, 40 mM magnesium chloride). Test compound dissolved in DMSO or only DMSO (control) was added and the samples were incubated for 10 min at 30° C. The kinase reaction was initiated by the addition of a substrate cocktail containing MBP and γ-^33P-ATP. After incubating for an additional 20 min at 30° C., the reaction was terminated by adding 0.75% phosphoric acid. The phosphorylated MBP was then separated from the residual γ-^33P-ATP using a phosphocellulose membrane (Millipore, Bedfrod, Mass.) and quantitated using a scintillation counter (Packard, Meriden, Conn.).

Setting [3] is: phosphate prodrug given orally, 30 mg/kg in parent equivalent.

pIC50: −log10 of the molar value. Where a name gives a salt, the structure may show the parent alone. Where only a bound is given, the exact number is not on record here.

T1 sequence (Q16539 whole entry): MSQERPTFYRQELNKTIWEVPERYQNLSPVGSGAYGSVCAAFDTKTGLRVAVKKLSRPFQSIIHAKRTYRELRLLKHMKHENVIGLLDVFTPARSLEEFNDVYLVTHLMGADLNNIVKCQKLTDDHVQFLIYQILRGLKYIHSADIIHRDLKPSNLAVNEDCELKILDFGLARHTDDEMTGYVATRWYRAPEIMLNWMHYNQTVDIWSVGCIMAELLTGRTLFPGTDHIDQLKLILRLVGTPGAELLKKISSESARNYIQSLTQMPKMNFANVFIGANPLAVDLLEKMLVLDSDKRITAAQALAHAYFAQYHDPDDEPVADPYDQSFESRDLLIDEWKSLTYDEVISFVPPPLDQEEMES

By melting point is commonly meant the temperature, or range, at which the solid turns liquid. The compound `C[C@@H](CNc1nc(Oc2ccc(F)cc2F)nc2[nH]nc(-c3ccccc3Cl)c12)OP(=O)(O)O` (as salt: sodium) [phosphoric acid mono-{2-[3-(2-chloro-phenyl)-6-(2,4-difluoro-phenoxy)-1H-pyrazolo[3,4-d]pyrimidin-4-ylamino]-1-methyl-ethyl}ester] gave a melting point of over 300 °C.

The Cmax is the maximum level reached in the sampled fluid or tissue. As usually defined, the AUC is concentration integrated over time. Take `CC(C)(O)CNc1nc(Oc2ccc(F)cc2F)nc2[nH]nc(-c3ccccc3Cl)c12` [1-[3-(2-Chloro-phenyl)-6-(2,4-difluoro-phenoxy)-1H-pyrazolo[3,4-d]pyrimidin-4-ylamino]-2-methyl-propan-2-ol]: in series [1] (3 mg/kg in parent equivalent), the highest concentration (Cmax) was determined as 1340 ng/mL and the AUC stood at 9270 ng·h/mL. Also, in series [1] (10 mg/kg in parent equivalent), the Cmax amounted to 7050 ng/mL and the AUC came to 47400 ng·h/mL.

Consider `C[C@H](O)CNc1nc(Oc2ccc(F)cc2F)nc2[nH]nc(-c3ccccc3Cl)c12` [1-[3-(2-chloro-phenyl)-6-(2,4-difluoro-phenoxy)-1H-pyrazolo[3,4-d]pyrimidin-4-ylamino]-propan-2-ol], for which the Cmax in series [2] (3 mg/kg in parent equivalent) came to 1330 ng/mL; in series [2] (30 mg/kg in parent equivalent), 9800 ng/mL. The AUC in series [2] (phosphate prodrug given orally, 3 mg/kg in parent equivalent) was determined as 12600 ng·h/mL; in series [2] (setting [3]) it was 124000 ng·h/mL.

Usually pIC50 stands for the IC50 on a negative log10 scale, so that one unit is a factor of ten. For the compound `OCC(O)CNc1nc(Oc2ccc(F)cc2F)nc2[nH]nc(-c3ccccc3Cl)c12` (centres unmarked) [3-[3-(2-Chloro-phenyl)-6-(2,4-difluoro-phenoxy)-1H-pyrazolo[3,4-d]pyrimidin-4-ylamino]-propane-1,2-diol], on p38 MAP kinase, the pIC50 is 8.40.

Consider `CC(C)(O)CNc1nc(Oc2ccc(F)cc2F)nc2c1c(-c1ccccc1Cl)nn2COC(=O)CCC(=O)O` [Succinic acid mono-[3-(2-chloro-phenyl)-6-(2,4-difluoro-phenoxy)-4-(2-hydroxy-2-methyl-propylamino)-pyrazolo[3,4-d]pyrimidin-1-ylmethyl]ester], for which, in series [1] (3 mg/kg in parent equivalent), the Cmax is 1830 ng/mL and the AUC was determined as 6110 ng·h/mL. For the same compound, in series [1] (10 mg/kg in parent equivalent), the highest concentration (Cmax) was 9250 ng/mL and the AUC came to 20900 ng·h/mL.

Regarding `C[C@@H](CNc1nc(Oc2ccc(F)cc2F)nc2[nH]nc(-c3ccccc3Cl)c12)OP(=O)(O)O` [phosphoric acid mono-{2-[3-(2-chloro-phenyl)-6-(2,4-difluoro-phenoxy)-1H-pyrazolo[3,4-d]pyrimidin-4-ylamino]-1-methyl-ethyl}ester], the Cmax in series [2] (30 mg/kg in parent equivalent) was determined as 214 ng/mL. Further, in series [2] (setting [3]), the AUC worked out at 188 ng·h/mL. Besides, the “concentration in rat plasma (not detected at quantification limit)” value in series [2] (phosphate prodrug given orally, 3 mg/kg dose) is under 0.5 ng/mL.
